Laboratory results reported in patent US20020173523A1, “IMMUNOSUPPRESSION BY PHOTOCHEMOTHERAPY” (priority 1997, published 2002).

Columns and labels:
BALB/c mice = test: Contact hypersensitivity test: ear swelling after primary and secondary sensitization with picryl chloride, photochemotherapy with 664 nm laser light; type: in vivo; settings: for Rate of Ear swelling, (%) (Average value ± Standard deviation): laser 664 nm, 10 J/cm^2, 30 min after dosing, untreated group = 100%, 24 h after secondary sensitization
Description: After the intravenous injection, hair of the abdominal side of the mice was shaved off. Thirty minutes after the administration of the test compound, a laser light at a wave length of 664 nm was irradiated onto the exposed skin of the abdominal side of the mice to give a total fluence of 10 J/cm^2 under the conditions of the laser output of 20 mW/cm^2 and the radiated spots of a diameter of 18 mm.
Five days after the primary sensitization, an aqueous solution containing 1% picryl chloride was applied to one ear of each mouse under test, to effect the secondary sensitization. Thus, there were prepared the treated groups of the test mice having a contact hypersensitibity.
(iii) Twenty-four hours after the secondary sensitization, namely six days after the primary sensitization, measurements were made of the thickness of both the ears of each mouse under test by a thickness gauge, and the increases in the thickness of ears were calculated from the difference which was found between the thickness of the one ear having not received the application of picryl chloride and the thickness of the another ear having received the application of picryl chloride for the secondary sensitization. Then, the rates (%) of ear swelling of each mouse of the treated group of mice were evaluated, on such assumption that the average value of the increase in the thickness of the secondarily sensitized ears of the mice of the untreated group was regarded as amounting to 100%, in respect of the mice of the untreated group of mice where the mice were neither administered with the test compound, nor were irradiated with the laser light, but where the mice received only the primary and secondary sensitizations with picryl chloride.

[1] = tested on: mice of BALB/c (H-2K^d) strain; test: Rejection reactions upon transplantation of skin in mice, photochemotherapy with 664 nm laser light; type: in vivo; settings: for Percentage (%) of number of the mice with the surviving and remaining skin graft transplanted: 1 mg/kg i.v., laser 664 nm 10 J/cm^2
Protocol: The following experiment was conducted in order to evaluate the therapeutic effect of the photochemotherapeutical method of this invention for treating the rejection reactions raised upon the transplantation of skin in mice.
Thus, as the mice (the recipient) which were to recieve a transplantation of skin, were used mice of BALB/c (H-2K^d) strain (ten mice per group). […] Thirty minutes after the intravenous injection of the test compound, a laser light at the wave length of 664 nm was irradiated onto the abdominal side of each recipient mouse at the laser output of 20 mW/cm^2, at the irradiated spots of a diameter of 18 mm and at a total laser fluence of 10 J/cm^2.
On the other hand, mice of CH/HeN(H-2K^b) strain were used as the mice (the donor) which were to afford the graft of skin for the transplantation to the recipient. The graft of skin to be used for the skin transplantation was one piece of the tail skin of the donor mice which was cut into a piece of about 5 mm×5 mm. This graft of skin was transplanted on the back side of the recipient mouse in such a manner that hair of the back side of the mouse was firstly shaved off, then one region of the skin of the hair-shaved back side of mouse was stripped off and the skin graft was transplanted onto the skin-stripped region of the back side of the recipient mouse. This skin transplantation was performed twenty-four hours after the irradiation of laser light on the recipient mouse.
Then, observation was made as to whether the skin graft so transplanted would fall off or not fall from the recipient mouse within the period of from the time of the skin transplantation to the 15 the days after the intravenous injection of the test compound.
The number of the recipient mice which normally have the transplanted and surviving skin graft remaining on the back side of mouse was counted at each of the given days of observation. The ratio of the number of the graft-remaining mouse at the each day to the number of the mouse at 0 day was expressed as percentage (%), with that the number of the recipient mice at the 0 day being assumed as 100.
Mice of the untreated group were those mice which received the skin transplantation only but neither received the administration of the test compound nor received the irradiation of laser light.

CD-1 mice (male) = test: Acute toxicity; type: in vivo

## C=Cc1c(C)c2cc3nc(c(CC(=O)N[C@@H](CC(=O)[O-])C(=O)[O-])c4[nH]c(cc5nc(cc1[nH]2)C(C)=C5CC)c(C)c4C(=O)[O-])[C@@H](CCC(=O)[O-])[C@@H]3C.[Na+].[Na+].[Na+].[Na+]
Photo-toxicity test
  Photo-toxicity reactions (result in words): no reactions such as erythema, edema
BALB/c mice; 0.001 mg/kg i.v.
  Rate of Ear swelling, (%) (Average value ± Standard deviation): 54.4 ± 7.2%
BALB/c mice; 0.01 mg/kg i.v.
  Rate of Ear swelling, (%) (Average value ± Standard deviation): 53.2 ± 20.6%
BALB/c mice; 0.05 mg/kg i.v.
  Rate of Ear swelling, (%) (Average value ± Standard deviation): 33.3 ± 4.4%
BALB/c mice; 0.1 mg/kg i.v.
  Rate of Ear swelling, (%) (Average value ± Standard deviation): 27.8 ± 8.5%
BALB/c mice; i.v. dosages of 0.001 mg/kg or more, then laser light
  Suppression of the ear swelling: ≥ 45%
BALB/c mice; i.v., laser light at 664 nm
  Ear swelling in contact hypersensitivity testing (result in words): remarkably be suppressed
[1]; 0th day (day of skin transplantation)
  Percentage (%) of number of the mice with the surviving and remaining skin graft transplanted: 100%
[1]; 6th day
  Percentage (%) of number of the mice with the surviving and remaining skin graft transplanted: 100%
[1]; 7th day
  Percentage (%) of number of the mice with the surviving and remaining skin graft transplanted: 80%
[1]; 10th day
  Percentage (%) of number of the mice with the surviving and remaining skin graft transplanted: 80%
[1]; 11th day
  Percentage (%) of number of the mice with the surviving and remaining skin graft transplanted: 80%
[1]; 15th day
  Percentage (%) of number of the mice with the surviving and remaining skin graft transplanted: 0%
[1]; i.v., laser light at 664 nm
  Rejection reactions in transplantation of skin (result in words): preventively suppressed
[1]; within the period of 6th to 11th days, treated group
  Percentage of the total mice tested with falling off of the skin graft: 20%
CD-1 mice (male)
  LD50: 164 mg/kg
